Data: patent US20230355558A1 (priority 2022, published 2023)

Test system: SARS-CoV-2
Format: cell-based

NCC1CCC(C(=O)[O][Ca][O]C(=O)C2CCC(CN)CC2)CC1 (stereo not shown) [Ca-TA, Calcium bis-tranexamate]
antiviral efficacy against SARS-CoV-2 infections and its emerging variants: desired antiviral efficacy
